# Experimental data reported in PubChem BioAssay AID1745844 (Carcinogenic Potency Database (CPDB), 2022).
# Several values for one entry are separate records, joined by “and”; a condition that tells them apart may be missing. Equal values may be shown once. Activity calls are given as the source filed them. How the calls were made is not given here.
# Test system: rodent lifetime carcinogenesis bioassay, tumor incidence TD50
# Assay: chronic cancer bioassays in animals – CPDB, compiled studies (AID 1745844)
compound,measurement,setting,value
Cc1ccc(N)c(C)c1,TD50,"mouse, strain CD-1 HaM/ICR, females, in feed, site: any site (literature study), lesion: several types, types named in the paper, dosed 77 weeks, study length 90 weeks",12.2 mg/kg/day
same,carcinogen call,"mouse, strain CD-1 HaM/ICR, females, in feed, site: liver, lesion: several types, types named in the paper, dosed 77 weeks, study length 90 weeks",negative (inactive)
same,TD50,"mouse, strain CD-1 HaM/ICR, females, in feed, site: lung, lesion: several types, types named in the paper, dosed 77 weeks, study length 90 weeks",12.4 mg/kg/day and 13.5 mg/kg/day
same,TD50,"mouse, strain CD-1 HaM/ICR, males, in feed, site: any site (literature study), lesion: several types, types named in the paper, dosed 77 weeks, study length 90 weeks",646 mg/kg/day (inactive)
same,TD50,"mouse, strain CD-1 HaM/ICR, males, in feed, site: liver, lesion: several types, types named in the paper, dosed 77 weeks, study length 90 weeks",65.4 mg/kg/day (inactive)
same,carcinogen call,"mouse, strain CD-1 HaM/ICR, males, in feed, site: lung, lesion: several types, types named in the paper, dosed 77 weeks, study length 90 weeks",negative (inactive)
same,TD50,"rat, strain Charles River CD (Sprague-Dawley), males, in feed, site: any site (literature study), lesion: several types, types named in the paper, dosed 77 weeks, study length 98 weeks",16.8 mg/kg/day (inactive)
same,TD50,"rat, strain Charles River CD (Sprague-Dawley), males, in feed, site: liver, lesion: several types, types named in the paper, dosed 77 weeks, study length 98 weeks",260 mg/kg/day (inactive)
O=C(OC[C@@H]1O[C@H](OC(=O)c2cc(O)c(O)c(OC(=O)c3cc(O)c(O)c(O)c3)c2)[C@@H](OC(=O)c2cc(O)c(O)c(OC(=O)c3cc(O)c(O)c(O)c3)c2)[C@H](OC(=O)c2cc(O)c(O)c(OC(=O)c3cc(O)c(O)c(O)c3)c2)[C@H]1OC(=O)c1cc(O)c(O)c(OC(=O)c2cc(O)c(O)c(O)c2)c1)c1cc(O)c(O)c(OC(=O)c2cc(O)c(O)c(O)c2)c1,TD50,"rat, strain F344/DuCrj, females, in drinking water, site: any site (literature study), lesion: several types, types named in the paper, dosed 104 weeks, study length 114 weeks",620 mg/kg/day (inactive)
same,TD50,"rat, strain F344/DuCrj, females, in drinking water, site: liver, lesion: hepatocellular adenoma, dosed 104 weeks, study length 114 weeks",16000 mg/kg/day (inactive)
same,carcinogen call,"rat, strain F344/DuCrj, males, in drinking water, site: any site (literature study), lesion: several types, types named in the paper, dosed 104 weeks, study length 114 weeks",negative (inactive)
same,carcinogen call,"rat, strain F344/DuCrj, males, in drinking water, site: liver, lesion: hepatocellular adenoma, dosed 104 weeks, study length 114 weeks",negative (inactive)
CN(N=O)c1ccccc1,TD50,"rat, strain Chester Beatty albino, females, in drinking water, site: esophagus, lesion: benign tumor, dosed 67 weeks, study length 67 weeks",32 mg/kg/day
same,carcinogen call,"rat, strain Chester Beatty albino, females, in drinking water, site: esophagus, lesion: several types, types named in the paper, dosed 67 weeks, study length 67 weeks",positive
same,TD50,"rat, strain Chester Beatty albino, females, in drinking water, site: esophagus, lesion: squamous-cell carcinoma, dosed 67 weeks, study length 67 weeks",26.4 mg/kg/day
same,carcinogen call,"rat, strain Chester Beatty albino, females, in drinking water, site: liver, lesion: one or several types, types not named, dosed 67 weeks, study length 67 weeks",negative (inactive)
same,TD50,"rat, strain Chester Beatty albino, males, in drinking water, site: esophagus, lesion: benign tumor, dosed 60 weeks, study length 60 weeks",70.4 mg/kg/day
same,TD50,"rat, strain Chester Beatty albino, males, in drinking water, site: esophagus, lesion: several types, types named in the paper, dosed 60 weeks, study length 60 weeks",5.27 mg/kg/day
same,TD50,"rat, strain Chester Beatty albino, males, in drinking water, site: esophagus, lesion: squamous-cell carcinoma, dosed 60 weeks, study length 60 weeks",10.5 mg/kg/day
same,carcinogen call,"rat, strain Chester Beatty albino, males, in drinking water, site: liver, lesion: one or several types, types not named, dosed 60 weeks, study length 60 weeks",negative (inactive)
same,TD50,"rat, strain Fischer 344, females, in drinking water, site: esophagus, lesion: carcinoma, dosed 50 weeks, study length 114 weeks",0.458 mg/kg/day
same,TD50,"rat, strain Fischer 344, males, in drinking water, site: esophagus, lesion: several types, types named in the paper, dosed 50 weeks, study length 114 weeks",0.272 mg/kg/day
same,TD50,"rat, strain Sprague-Dawley, both sexes, in drinking water, site: esophagus, lesion: several types, types named in the paper, dosed 104 weeks, study length 104 weeks",0.0343 mg/kg/day
Oc1ccc(Cl)cc1Cl,carcinogen call,"mouse, strain B6C3F1, females, in feed, site: any site (literature study), lesion: several types, types named in the paper, dosed 103 weeks, study length 104 weeks",negative (inactive)
same,TD50,"mouse, strain B6C3F1, males, in feed, site: forestomach, lesion: squamous-cell carcinoma + squamous-cell papilloma, dosed 103 weeks, study length 104 weeks",12400 mg/kg/day (inactive)
same,TD50,"mouse, strain B6C3F1, males, in feed, site: liver, lesion: hepatocellular adenoma + hepatocellular carcinoma + neoplastic nodule, dosed 103 weeks, study length 104 weeks",458000 mg/kg/day
same,TD50,"mouse, strain B6C3F1, males, in feed, site: lung, lesion: alveolar/bronchiolar adenoma + alveolar/bronchiolar carcinoma, dosed 103 weeks, study length 104 weeks",13300 mg/kg/day
same,carcinogen call,"rat, strain Fischer 344, females, in feed, site: any site (literature study), lesion: several types, types named in the paper, dosed 103 weeks, study length 104 weeks",negative (inactive)
same,carcinogen call,"rat, strain Fischer 344, males, in feed, site: any site (literature study), lesion: several types, types named in the paper, dosed 103 weeks, study length 104 weeks",negative (inactive)
O=NN1CCCN(N=O)C1,TD50,"rat, strain Sprague-Dawley, males, i.p., site: paranasal sinus, lesion: squamous-cell carcinoma, dosed 104 weeks, study length 104 weeks",0.166 mg/kg/day
COC(N)=O,carcinogen call,"mouse, strain B6C3F1, females, by gavage, site: any site (literature study), lesion: several types, types named in the paper, dosed 103 weeks, study length 104 weeks",negative (inactive)
same,TD50,"mouse, strain B6C3F1, females, by gavage, site: liver, lesion: hepatocellular adenoma + hepatocellular carcinoma + neoplastic nodule, dosed 103 weeks, study length 104 weeks",4700 mg/kg/day
same,TD50,"mouse, strain B6C3F1, males, by gavage, site: any site (literature study), lesion: several types, types named in the paper, dosed 103 weeks, study length 104 weeks",5220 mg/kg/day (inactive)
same,TD50,"mouse, strain B6C3F1, males, by gavage, site: liver, lesion: hepatocellular adenoma + hepatocellular carcinoma + neoplastic nodule, dosed 103 weeks, study length 104 weeks",5080 mg/kg/day
same,TD50,"rat, strain Fischer 344, females, by gavage, site: liver, lesion: hepatocellular adenoma + hepatocellular carcinoma + neoplastic nodule, dosed 103 weeks, study length 104 weeks",839 mg/kg/day
same,TD50,"rat, strain Fischer 344, females, by gavage, site: liver, lesion: hepatocellular carcinoma + neoplastic nodule, dosed 103 weeks, study length 104 weeks",839 mg/kg/day
same,TD50,"rat, strain Fischer 344, females, by gavage, site: liver, lesion: hepatocellular carcinoma, dosed 52 weeks, study length 52 weeks",53.4 mg/kg/day
same,TD50,"rat, strain Fischer 344, females, by gavage, site: liver, lesion: hepatocellular carcinoma, dosed 78 weeks, study length 78 weeks",68.4 mg/kg/day
same,TD50,"rat, strain Fischer 344, females, by gavage, site: liver, lesion: neoplastic nodule, dosed 52 weeks, study length 52 weeks",21.3 mg/kg/day
same,TD50,"rat, strain Fischer 344, females, by gavage, site: liver, lesion: neoplastic nodule, dosed 78 weeks, study length 78 weeks",159 mg/kg/day
same,TD50,"rat, strain Fischer 344, females, by gavage, site: liver, lesion: neoplastic nodule, dosed 103 weeks, study length 104 weeks",979 mg/kg/day
same,TD50,"rat, strain Fischer 344, males, by gavage, site: liver, lesion: hepatocellular adenoma + hepatocellular carcinoma + neoplastic nodule, dosed 103 weeks, study length 104 weeks",2030 mg/kg/day
same,TD50,"rat, strain Fischer 344, males, by gavage, site: liver, lesion: hepatocellular carcinoma + neoplastic nodule, dosed 103 weeks, study length 104 weeks",2030 mg/kg/day
same,TD50,"rat, strain Fischer 344, males, by gavage, site: liver, lesion: hepatocellular carcinoma, dosed 52 weeks, study length 52 weeks",30.4 mg/kg/day
same,TD50,"rat, strain Fischer 344, males, by gavage, site: liver, lesion: hepatocellular carcinoma, dosed 78 weeks, study length 78 weeks",47.8 mg/kg/day
same,TD50,"rat, strain Fischer 344, males, by gavage, site: liver, lesion: neoplastic nodule, dosed 52 weeks, study length 52 weeks",40.7 mg/kg/day
same,TD50,"rat, strain Fischer 344, males, by gavage, site: liver, lesion: neoplastic nodule, dosed 78 weeks, study length 78 weeks",494 mg/kg/day
